According to PubChem BioAssay AID2060489 (Molecular Pharmacology Branch, DTP, NCI, 2025):

Test system: 922993-354-T-J3-PDC complex spheroids, viability
Assay: Anticancer human tumor 922993-354-T-J3-PDC patient-derived endometrial carcinoma cell line growth inhibition [GQUAD]
Conditions: for IC50: curve of first compound; for viability, T/C: stronger effect = lower value
How it was run: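 Tumor cells were grown as complex spheroids with HUVEC endothelial cells and mesenchymal stem cells as stroma. G-quadruplex stabilizers were combined with targeted agents over half-log dilutions from near the clinical Cmax, or from 10 microM.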

[1] = second compound 0.0316 µM, first compound 0.0316 µM
[2] = second compound 0.0316 µM, first compound 0.1 µM
[3] = second compound 0.0316 µM, first compound 0.316 µM
[4] = second compound 0.0316 µM, first compound 1 µM
[5] = second compound 0.0316 µM, first compound 3.16 µM
[6] = second compound 0.0316 µM, first compound 10 µM
[7] = second compound 0.1 µM, first compound 0.0316 µM
[8] = second compound 0.1 µM, first compound 0.1 µM
[9] = second compound 0.1 µM, first compound 0.316 µM
[10] = second compound 0.1 µM, first compound 1 µM
[11] = second compound 0.1 µM, first compound 3.16 µM
[12] = second compound 0.1 µM, first compound 10 µM
[13] = second compound 0.316 µM, first compound 0.0316 µM
[14] = second compound 0.316 µM, first compound 0.1 µM
[15] = second compound 0.316 µM, first compound 0.316 µM
[16] = second compound 0.316 µM, first compound 1 µM
[17] = second compound 0.316 µM, first compound 3.16 µM
[18] = second compound 0.316 µM, first compound 10 µM
[19] = second compound 1 µM, first compound 0.0316 µM
[20] = second compound 1 µM, first compound 0.1 µM
[21] = second compound 1 µM, first compound 0.316 µM
[22] = second compound 1 µM, first compound 1 µM
[23] = second compound 1 µM, first compound 3.16 µM
[24] = second compound 1 µM, first compound 10 µM
[25] = second compound 3.16 µM, first compound 0.0316 µM
[26] = second compound 3.16 µM, first compound 0.1 µM
[27] = second compound 3.16 µM, first compound 0.316 µM
[28] = second compound 3.16 µM, first compound 1 µM
[29] = second compound 3.16 µM, first compound 3.16 µM
[30] = second compound 3.16 µM, first compound 10 µM
[31] = second compound 10 µM, first compound 0.0316 µM
[32] = second compound 10 µM, first compound 0.1 µM
[33] = second compound 10 µM, first compound 0.316 µM
[34] = second compound 10 µM, first compound 1 µM
[35] = second compound 10 µM, first compound 3.16 µM
[36] = second compound 10 µM, first compound 10 µM
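Note: spheroids exposed to compounds for seven days.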
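Throughout, for viability, T/C: 100% = DMSO vehicle control viability.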

## C#Cc1c(F)ccc2cc(O)cc(-c3ncc4c(N5CC6CCC(C5)N6)nc(OCC56CCCN5CC(F)C6)nc4c3F)c12 (stereo unspecified) + CN(C)c1ccc(Nc2c3ccc(NC(=O)CCN4CCCC4)cc3nc3cc(NC(=O)CCN4CCCC4)ccc23)cc1
Second compound 0.0316 µM
  IC50: > 10 µM
Second compound 0.1 µM
  IC50: > 10 µM
Second compound 0.316 µM
  IC50: > 10 µM
Second compound 1 µM
  IC50: > 10 µM
Second compound 3.16 µM
  IC50: > 10 µM
Second compound 10 µM
  IC50: > 10 µM
[1]
  viability, T/C: 93.8%
[2]
  viability, T/C: 78.5%
[3]
  viability, T/C: 97.2%
[4]
  viability, T/C: 86.9%
[5]
  viability, T/C: 95.3%
[6]
  viability, T/C: 81.5%
[7]
  viability, T/C: 99.4%
[8]
  viability, T/C: 89.3%
[9]
  viability, T/C: 94.3%
[10]
  viability, T/C: 100%
[11]
  viability, T/C: 82.3%
[12]
  viability, T/C: 95.9%
[13]
  viability, T/C: 71.9%
[14]
  viability, T/C: 97.4%
[15]
  viability, T/C: 97.7%
[16]
  viability, T/C: 81%
[17]
  viability, T/C: 87%
[18]
  viability, T/C: 76%
[19]
  viability, T/C: 71.4%
[20]
  viability, T/C: 86.9%
[21]
  viability, T/C: 88.7%
[22]
  viability, T/C: 85.4%
[23]
  viability, T/C: 84%
[24]
  viability, T/C: 88.1%
[25]
  viability, T/C: 116%
[26]
  viability, T/C: 102%
[27]
  viability, T/C: 129%
[28]
  viability, T/C: 100%
[29]
  viability, T/C: 108%
[30]
  viability, T/C: 92.8%
[31]
  viability, T/C: 88.3%
[32]
  viability, T/C: 133%
[33]
  viability, T/C: 108%
[34]
  viability, T/C: 133%
[35]
  viability, T/C: 104%
[36]
  viability, T/C: 94.6%

## CC(=O)O[C@H]1C(=O)[C@@]2(C)[C@H]([C@H](OC(=O)c3ccccc3)[C@]3(O)C[C@H](OC(=O)[C@H](O)[C@@H](NC(=O)c4ccccc4)c4ccccc4)C(C)=C1C3(C)C)[C@]1(OC(C)=O)CO[C@@H]1C[C@@H]2O + CN(C)c1ccc(Nc2c3ccc(NC(=O)CCN4CCCC4)cc3nc3cc(NC(=O)CCN4CCCC4)ccc23)cc1
Second compound 0.0316 µM
  IC50: 7.96 µM
Second compound 0.1 µM
  IC50: 8.65 µM
Second compound 0.316 µM
  IC50: > 10 µM
Second compound 1 µM
  IC50: > 10 µM
Second compound 3.16 µM
  IC50: > 10 µM
Second compound 10 µM
  IC50: > 10 µM
[1]
  viability, T/C: 86.5%
[2]
  viability, T/C: 79%
[3]
  viability, T/C: 104%
[4]
  viability, T/C: 104%
[5]
  viability, T/C: 65.3%
[6]
  viability, T/C: 46.2%
[7]
  viability, T/C: 83.4%
[8]
  viability, T/C: 90.2%
[9]
  viability, T/C: 113%
[10]
  viability, T/C: 101%
[11]
  viability, T/C: 67.3%
[12]
  viability, T/C: 47.5%
[13]
  viability, T/C: 73.5%
[14]
  viability, T/C: 82.3%
[15]
  viability, T/C: 116%
[16]
  viability, T/C: 85.6%
[17]
  viability, T/C: 72%
[18]
  viability, T/C: 57.5%
[19]
  viability, T/C: 81.1%
[20]
  viability, T/C: 99.5%
[21]
  viability, T/C: 96.4%
[22]
  viability, T/C: 69.5%
[23]
  viability, T/C: 80%
[24]
  viability, T/C: 51.8%
[25]
  viability, T/C: 93.7%
[26]
  viability, T/C: 116%
[27]
  viability, T/C: 103%
[28]
  viability, T/C: 92.5%
[29]
  viability, T/C: 82.6%
[30]
  viability, T/C: 53.5%
[31]
  viability, T/C: 99.7%
[32]
  viability, T/C: 122%
[33]
  viability, T/C: 125%
[34]
  viability, T/C: 130%
[35]
  viability, T/C: 77.6%
[36]
  viability, T/C: 67.1%

## CC(C)(O)C1CCC(Nc2ccc3ncc(-c4cccc(C(F)(F)F)c4)n3n2)CC1 (stereo unspecified) + CN(C)c1ccc(Nc2c3ccc(NC(=O)CCN4CCCC4)cc3nc3cc(NC(=O)CCN4CCCC4)ccc23)cc1
Second compound 0.0316 µM
  IC50: > 10 µM
Second compound 0.1 µM
  IC50: > 10 µM
Second compound 0.316 µM
  IC50: > 10 µM
Second compound 1 µM
  IC50: > 10 µM
Second compound 3.16 µM
  IC50: > 10 µM
Second compound 10 µM
  IC50: > 10 µM
[1]
  viability, T/C: 78.5%
[2]
  viability, T/C: 92.8%
[3]
  viability, T/C: 99.9%
[4]
  viability, T/C: 80.2%
[5]
  viability, T/C: 85.1%
[6]
  viability, T/C: 92.3%
[7]
  viability, T/C: 100%
[8]
  viability, T/C: 91%
[9]
  viability, T/C: 88.6%
[10]
  viability, T/C: 87.6%
[11]
  viability, T/C: 76.6%
[12]
  viability, T/C: 81.2%
[13]
  viability, T/C: 108%
[14]
  viability, T/C: 83%
[15]
  viability, T/C: 96.5%
[16]
  viability, T/C: 89.7%
[17]
  viability, T/C: 58%
[18]
  viability, T/C: 63.3%
[19]
  viability, T/C: 69.5%
[20]
  viability, T/C: 96.2%
[21]
  viability, T/C: 79%
[22]
  viability, T/C: 75.2%
[23]
  viability, T/C: 78.9%
[24]
  viability, T/C: 61.2%
[25]
  viability, T/C: 92%
[26]
  viability, T/C: 95%
[27]
  viability, T/C: 90.4%
[28]
  viability, T/C: 94.3%
[29]
  viability, T/C: 85%
[30]
  viability, T/C: 74.4%
[31]
  viability, T/C: 120%
[32]
  viability, T/C: 140%
[33]
  viability, T/C: 103%
[34]
  viability, T/C: 88.8%
[35]
  viability, T/C: 78.3%
[36]
  viability, T/C: 55%
